Series [1] is described as follows: maximum PFC dissolved in ethanol. The settings on record: in ethanol (co-solvent). The class given is physicochemical. The procedure: PFC ouzo droplets were synthesized by first dissolving a PFC into ethanol (co-solvent). A maximum of approximately 2.0% perfluorohexane (C6F14, TBoiling=56° C.), 2.3% perfluoropentane (C5F12, TBoiling=29° C.), 2.5% perfluorobutane (C4F10, TBoiling=2° C.), and 2.7% perfluoropropane ([…], TBoiling=−37° C.) by volume could be dissolved in ethanol. In the ethanol phase, a 20:1 mole ratio of dipalmitoylphosphatidylcholine (DPPC) and N-(Methylpolyoxyethylene oxycarbonyl)-1,2-distearoyl-sn-glycero-3-phosphoethanolamine sodium salt (DSPE-PEG 2K) lipids were also dissolved. The total lipid concentration was varied from 0.10 mg/ml to 1.82 mg/ml depending on the volume of perfluorocarbon that was used. […] However, lower concentration lipids solutions were not used to ensure ample lipids were in solution to stabilize the droplet interface. […] When an aqueous solution (solvent) prepared at a ratio of 7:2:1 water/propylene glycol/glycerol is added to the PFC/ethanol solution, the PFC oil phase quickly loses solubility resulting in the spontaneous nucleation of stable droplets (FIG. 2). Since PFCs are known to have very poor solubility in water, the greater the water content relative to ethanol, the lower the PFC solubility is in the final mixed solvent. The inclusion of glycerol and propylene glycol is optional for droplet nucleation. For example, PFC emulsions can also be generated in the absence of any stabilizer (FIGS. 8 and 9). However, glycerol and propylene glycol are commonly used along with lipid mixtures to improve microbubble stability. Here, glycerol and propylene glycol were also included in the ouzo droplet formulation to make the agent composition analogous to microbubbles and to increase stability.
The lipid-ethanol stock solution was then divided as needed. Using a stir plate, PFCs were then dissolved in the lipid-ethanol solution until it was fully saturated. For liquid PFCs (i.e. PFH and PFP), the PFC oil was incrementally added to the stirred ethanol solution until a small droplet of PFC formed in solution. The solution was then removed from the stir plate and allowed to rest at room temperature for approximately 20 minutes, enabling excess PFC to fall to the bottom of the container. For gaseous PFCs (i.e. PFB and OFP), PFC gas was bubbled into a sealed glass vial with the ethanol solution at a pressure of 1.5-2.0 PSI while on ice. It was bubbled through for a minimum of 2 minutes and purged 3 times to ensure the headspace was filled with gaseous PFC. Then, the PFC-lipid-ethanol solution was pipetted into a clean glass vial and diluted as needed using additional lipid-ethanol solution to achieve the desired PFC in ethanol saturation percentage. […]

For another series, the system named is rat spinal cord. Description: ultrasound contrast imaging in a rat spinal cord model. Format: in vivo, Sprague-Dawley rat. The settings on record: bolus via tail vein, 15 MHz linear array, harmonic imaging. On the procedure:
Ouzo-synthesized droplets were used as an ultrasound contrast agent in a rat spinal cord model (FIGS. 7A-7D). Surgical procedures were performed according to approved institutional animal care and use committee (IACUC) protocol following all appropriate guidelines from the university's Animal Welfare Assurance (A3464-01) as well as the NIH Office of Laboratory Animal Welfare (OLAW). A laminectomy was performed to remove the top surface of spine vertebrae, exposing the spinal cord. A bolus injection of perfluorobutane droplets ([…]) with a mean diameter of 182 nm was administered via tail vein and imaged using a 15 MHz linear array ultrasound transducer. […] Harmonic imaging was necessary to suppress intrinsic linear signals from this tissue model and to highlight the non-linear signals that are generated from bubble oscillations.
Surgical procedures were performed according to approved institutional animal care and use committee (IACUC) protocol following all appropriate guidelines from the university's Animal Welfare Assurance (A3464-01) as well as the NIH Office of Laboratory Animal Welfare (OLAW). A 0.2 ml bolus injection of perfluorobutane droplets diluted to approximately 10^6 droplet/ml was injected via tail vein in an anesthetized female Sprague-Dawley rat. An ultrasound imaging window was made by performing a laminectomy to expose the spinal cord between T6 and T10. […]

For the compound `FC(F)(F)C(F)(F)C(F)(F)C(F)(F)F` [perfluorobutane], the “maximum that could be dissolved in ethanol” value in series [1] was roughly 2.5 % by volume. As to `FC(F)(F)C(F)(F)C(F)(F)C(F)(F)C(F)(F)C(F)(F)F` [perfluorohexane], in series [1], the “maximum that could be dissolved in ethanol” value was “approximately 2.0 % by volume”. Further, the “ultrasound contrast enhancement after injection” value in the series with rat spinal cord is on record as “nearly zero contrast enhancement”.

Regarding `FC(F)(F)C(F)(F)C(F)(F)C(F)(F)C(F)(F)F` [perfluoropentane], in series [1], the “maximum that could be dissolved in ethanol” value is roughly 2.3 % by volume. Moreover, the “ultrasound contrast enhancement after injection” value with rat spinal cord was “nearly zero contrast enhancement”. For the compound `FC(F)(F)C(F)(F)C(F)(F)F` [perfluoropropane], the “maximum that could be dissolved in ethanol” value in series [1] is recorded as roughly 2.7 % by volume.

The values above are taken from patent US20190307908A1, “NANOEMULSION AGENTS FOR ULTRASOUND DIAGNOSTIC AND THERAPY” (University of Washington, priority 2018, published 2019).
